Reference: patent US7947312B2, “Method of preparation and composition of a water soluble extract of the bioactive component of the plant species Uncaria for enhancing immune, anti-inflammatory, anti-tumor and DNA repair processes of warm blooded animals” (priority 2002, dated 2011)
Structures can show the parent of a compound that is named as a salt.

Tests used:
NF-κB = NF-κB reporter (luciferase) in transfected Jurkat T cells; type: cell-based, human; settings: PMA 50 ng/ml and ionomycin 1 μM, 2 h pre-culture, 6 h stimulation
Procedure: FIG. 5A illustrates Jurkat T that are cells transfected with a NF-κB reporter construct were pre-cultured with various concentrations of QA or C-MED-100® for two hours. PMA (50 ng/ml) and ionomycin (1 μM) were thereafter added and the cells incubated for another six hours. The mean induction of luciferase activity in triplicate cultures from one representative experiment out of four are shown (left panel). QA induced no cell death or apoptosis in Jurkat T cells at concentrations which inhibited NF-κB activity. Jurkat T cells were incubated with various concentrations of QA for 24 hours and thereafter stained with Annexin V and 7AAD before analysis by flow cytometry. The data are the mean values±S.D. of triplicates from one representative experiment out of two performed (right panel). Transient transfection and analysis of luciferase activity: The reporter construct containing NF-κB binding sequences and the luciferase reporter gene was previously described. […] The cells were lysed and aliquots of the lysates analyzed for luciferase activity using the Luciferase Assay System (Promega, Madison, Wis.). Luminiscence was quantitated in a MicroLumat LB 96 P luminometer (EG&G Berthold, Wallac […], Upplands Väsby, Sweden).

IκBα = experiment: Western blotting of IκBα and phosphorylated IκBα in LPS-stimulated 70Z/3 cells; type: cell-based, mouse; settings: QA 2 mg/ml or PDTC 100 μM
Procedure: FIGS. 5C and 5D illustrate 70Z/3 cells (5×10^6) that were pre-treated with QA (2 mg/ml) or with PDTC (100 μM) as a positive control for two hours and thereafter stimulated with LPS (25 μg/ml) for the indicated time. Cytoplasmic extracts equalized for protein concentration were analyzed by western blotting using IκBα-specific antibodies. One representative experiment out of three (FIG. 5C) and one representative experiment out of two (FIG. 5D) are presented.
Preparation of cell extracts: The 70Z/3 cells were pretreated with QA (1 or 2 mg/ml) or with PDTC for 2 hours before they were stimulated with LPS for various time points. Whole cell extracts from the 70Z/3 cells (1×10^6) were prepared for analysis of the NF-κB signaling pathway. The cells were washed twice in PBS, resuspended in lysis buffer (75 mM Tris-HCl (pH 8.0), 100 mM NaCl, 5 mM KCl, 3 mM MgCl2, 2% NP-40, 1 mM PMSF and a protease inhibitor cocktail) (Roche Diagnostics Scandinavia AB) and incubated on ice for 10 min. The cell debris was pelleted and the supernatants were stored at −70° C. until Western Blot was performed.
Western blotting: Cellular extracts from 70Z/3 cells were separated on a 10% SDS polyacrylamide gel and the proteins were transferred to a nylon membrane. After blocking overnight in 5% dry fat-free milk in TBST, the membrane was incubated for 2 hrs with primary antibodies specific either to IκBα or to phosphorylated IκBα (both from Cell Signaling Technology Inc, Beverly, Mass.). The membranes were thereafter washed three times in TBST, and incubated with HRP-conjugated goat anti-rabbit antibodies (Amersham Pharmacia). The membranes were washed three times and chemoluminescence was detected using the ECL-reagent (Amersham Pharmacia) and x-ray film (CEA AB, Strängnäs, Sweden).

[1] = test system: NF-κB dependent Igκ-chain expression in 70Z/3 cells; experiment: LPS-induced Igκ-chain expression in 70Z/3 cells (flow cytometry, 7AAD); type: cell-based
Procedure: FIG. 5B illustrates 70Z/3 cells (2×10^5) that were pretreated for 4 h with C-MED-100® or QA before activation for 20 h with LPS (25 μg/ml). The cells were thereafter stained with 7AAD and Igκ-antibodies and analyzed by flow cytometry. The results are mean Igκ-positive cells±S.D. (left panel) and mean 7AAD negative cells±S.D. (right panel) of duplicate cultures from one representative experiment out of two performed.
(§1) Cell cultures: Raji human Burkitt's lymphoma (CCL-86), Jurkat human acute T-cell leukemia (TIB-152), 70Z/3 mouse pre-B lymphocyte cell line (TIB-158), or mouse spleen cells were used in the experiments. The cells were cultured in RPMI medium (Life Technologies) supplemented with 10% FCS, 10 mM HEPES buffer, antibiotics, 50 μM 2-mercaptoethanol and 1 mM sodium pyruvate (all supplements from Life Technologies) at 37° C., 5% CO2. The number of Raji cells in duplicate cultures were determined with a Coulter Z1 cell counter (Beckman Coulter Inc, Fullerton, Calif., USA) three times each. The number of viable and dead cells were determined using trypan blue exclusion, by counting three independent samples from duplicate cultures. […] Proliferation was detected by measuring thymidine incorporation after a 4 hours pulse with 1 μCi ^3[H]-thymidine (Amersham Pharmacia).

Jurkat T cells = experiment: Jurkat T cell death and apoptosis (Annexin V / 7AAD); type: cell-based, human; settings: 24 hours, concentrations inhibiting NF-κB
Procedure: FIG. 5A illustrates Jurkat T that are cells transfected with a NF-κB reporter construct were pre-cultured with various concentrations of QA or C-MED-100® for two hours. PMA (50 ng/ml) and ionomycin (1 μM) were thereafter added and the cells incubated for another six hours. The mean induction of luciferase activity in triplicate cultures from one representative experiment out of four are shown (left panel). QA induced no cell death or apoptosis in Jurkat T cells at concentrations which inhibited NF-κB activity. Jurkat T cells were incubated with various concentrations of QA for 24 hours and thereafter stained with Annexin V and 7AAD before analysis by flow cytometry. […]
as §1, with “The cells were cultured in RPMI medium (Life Technologies) supplemented with 10% FCS, 10 mM HEPES buffer, antibiotics, 50 μM 2-mercaptoethanol and 1 mM sodium pyruvate (all supplements from Life Technologies) at 37° C., 5% CO2.” left out

SMILES | NF-κB activity (luciferase reporter) (NF-κB) | phosphorylation of IκBα (IκBα) | LPS-induced breakdown of IκBα (IκBα; 2 h pretreatment) | cell death in 70Z/3 cells (7AAD) [1] | LPS-induced Igκ-chain expression ([1]; 70Z/3 cells, 4 h pretreatment, LPS 25 μg/ml 20 h) | cell death in Jurkat T cells (Jurkat T cells)
O=C(O)[C@]1(O)C[C@@H](O)[C@@H](O)[C@H](O)C1 [QAA, quinic acid ammonium salt] | inhibited the NF-κB activity to a similar extent as QA |  |  |  |  | 
O=C(O)C1(O)CC(O)C(O)C(O)C1 (stereo not shown) [QA, 1,3,4,5-tetrahydroxy-cyclohexanecarboxylic acid] | in a dose dependent manner, inhibited the NF-κB activity | did not affect the phosphorylation of IκBα | inhibited the LPS-induced breakdown of IκBα | without causing cell death | inhibited Igκ-chain expression to a similar extent | did not induce cell death
